# Experimental data from US7354734B2, “Fungal proteins and nucleic acids encoding same” (priority 2003, dated 2008).
# “And” between values parts separate entries of the source, which are not always exact repeats. Equal entries are not always repeated. Where two headings read alike, the source gives them in different places.
# B1: Cytosolic porcine kidney aminopeptidase: cytosolic leucine aminopeptidase from porcine kidney, Sigma (protein, UniProt P28839 1-519, looked up)
# Cytosol aminopeptidase: MFLLPLPAAARVAVRQLSVRRFWGPGPDAANMTKGLVLGIYSKEKEDDAPQFTSAGENFDKLVSGKLREILNISGPPLKAGKTRTFYGLHEDFSSVVVVGLGKKGAGVDDQENWHEGKENIRAAVAAGCRQIQDLEIPSVEVDPCGDAQAAAEGAVLGLYEYDELKQKKKVVVSAKLHGSGDQEAWQRGVLFASGQNLARHLMETPANEMTPTRFAEVIEKNLKSASSKTDVHIRPKSWIEEQEMGSFLSVAKGSEEPPVFLEIHYKGSPDASDPPLVFVGKGITFDSGGISIKASANMDLMRADMGGAATICSTIVSAAKLDLPINLVGLAPLCENMPSGKANKPGDVVRAKNGKTIQVDNTDAEGRLILADALCYAHTFNPKVIINAATLTGAMDIALGSGATGVFTNSSWLWNKLFEASIETGDRVWRMPLFEHYTKQIVDCQLADVNNIGKYRSAGACTAAAFLKEFVTHPKWAHLDIAGVMTNKDEVPYLRKGMAGRPTRTLIEFLLRFSQDSA
# Key:
# ruLAP1 = ruLAP1 (Trichophyton rubrum, UniProt Q5QHG5); type: biochemical; details: for effect of inhibitor on ruLAP1 activity: Leu-AMC 5 mM
# ruLAP2 = ruLAP2 (Trichophyton rubrum, UniProt Q5QHG6); type: biochemical; details: for effect of inhibitor on ruLAP2 activity: Leu-AMC 5 mM; for ruLAP2 activity as percentage of control reaction without inhibitor / ruLAP2 activity as percentage of control reaction without any cation: Leu-MCA substrate, 15 min pre-incubation
# fuLAP1 = fuLAP1 (Aspergillus fumigatus, UniProt Q5VJG6); assay: biochemical; type: biochemical; details: for effect of inhibitor on fuLAP1 activity: Leu-AMC 5 mM
# fuLAP2 = type: biochemical, Aspergillus fumigatus; details: for effect of inhibitor on fuLAP2 activity: Leu-AMC 5 mM; for fuLAP2 activity as percentage of control reaction without inhibitor / fuLAP2 activity as percentage of control reaction without any cation: Leu-MCA substrate, 15 min pre-incubation
# [1] = target: T1, pkLAP (microsomal LAP from porcine kidney) (Sus scrofa, UniProt P15145); assay: Effect of inhibitors and metallic cations on LAP activity (Leu-AMC); type: biochemical
# T1 construct: purchased Sigma; host or cells: porcine kidney
# T1 sequence (P15145 1-963): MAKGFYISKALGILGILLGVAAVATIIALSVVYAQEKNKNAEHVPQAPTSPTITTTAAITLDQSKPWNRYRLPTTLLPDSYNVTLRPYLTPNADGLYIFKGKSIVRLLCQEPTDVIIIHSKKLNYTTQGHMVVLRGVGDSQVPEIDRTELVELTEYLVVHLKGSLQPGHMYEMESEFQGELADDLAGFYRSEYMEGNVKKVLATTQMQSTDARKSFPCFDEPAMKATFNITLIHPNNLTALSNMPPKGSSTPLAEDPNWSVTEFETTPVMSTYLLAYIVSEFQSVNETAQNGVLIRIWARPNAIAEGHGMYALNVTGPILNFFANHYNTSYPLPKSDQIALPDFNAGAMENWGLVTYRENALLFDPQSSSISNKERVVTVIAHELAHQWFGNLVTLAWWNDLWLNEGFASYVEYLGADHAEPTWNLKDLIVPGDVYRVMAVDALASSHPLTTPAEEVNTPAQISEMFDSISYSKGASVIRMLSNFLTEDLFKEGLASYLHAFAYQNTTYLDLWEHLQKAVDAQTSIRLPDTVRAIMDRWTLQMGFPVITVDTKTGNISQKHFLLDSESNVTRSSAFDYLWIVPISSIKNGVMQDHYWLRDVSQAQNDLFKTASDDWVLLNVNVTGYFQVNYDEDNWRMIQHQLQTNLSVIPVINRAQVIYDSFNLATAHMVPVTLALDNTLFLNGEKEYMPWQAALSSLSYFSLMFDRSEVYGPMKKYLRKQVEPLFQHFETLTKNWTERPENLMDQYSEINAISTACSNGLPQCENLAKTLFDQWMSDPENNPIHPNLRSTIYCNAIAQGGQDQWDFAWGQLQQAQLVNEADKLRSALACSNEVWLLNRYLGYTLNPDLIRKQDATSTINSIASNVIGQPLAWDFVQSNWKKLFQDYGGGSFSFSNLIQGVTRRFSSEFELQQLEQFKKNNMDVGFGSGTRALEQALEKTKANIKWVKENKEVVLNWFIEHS
# [2] = tested on: gliadin 33mer (fragment 57-89 of gliadin MM1); assay: Digestion of gliadin 33mer (RP-HPLC, ESI-MS); type: biochemical, wheat; details: for digestion of gliadin 33mer, enzyme alone: 37° C.
# [3] = inhibitor 20 μM, Leu-MCA substrate, 15 min pre-incubation
# [4] = cation salt 0.5 mM, Leu-MCA substrate, 15 min pre-incubation
# [5] = cation salt 1 mM, Leu-MCA substrate, 15 min pre-incubation
# [6] = inhibitor 500 μM, Leu-MCA substrate, 15 min pre-incubation, read-out: fuLAP1 activity as percentage of control reaction without inhibitor
# [7] = inhibitor 1 mM, Leu-MCA substrate, 15 min pre-incubation
# [8] = inhibitor 5 mM, Leu-MCA substrate, 15 min pre-incubation
# [9] = inhibitor 500 μM, Leu-MCA substrate, 15 min pre-incubation
# Sequence of fuLAP1 (Q5VJG6 16-388): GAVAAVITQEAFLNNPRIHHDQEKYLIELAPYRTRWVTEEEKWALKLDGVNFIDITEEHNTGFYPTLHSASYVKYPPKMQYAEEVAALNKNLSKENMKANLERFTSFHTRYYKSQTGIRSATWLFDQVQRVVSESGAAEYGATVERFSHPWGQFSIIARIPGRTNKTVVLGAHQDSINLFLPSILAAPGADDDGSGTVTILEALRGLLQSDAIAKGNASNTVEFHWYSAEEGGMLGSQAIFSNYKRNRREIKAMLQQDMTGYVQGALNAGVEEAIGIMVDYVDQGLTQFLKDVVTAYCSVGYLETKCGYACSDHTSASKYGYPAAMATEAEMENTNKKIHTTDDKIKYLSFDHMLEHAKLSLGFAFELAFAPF
# Sequence of ruLAP1 (Q5QHG5 21-373): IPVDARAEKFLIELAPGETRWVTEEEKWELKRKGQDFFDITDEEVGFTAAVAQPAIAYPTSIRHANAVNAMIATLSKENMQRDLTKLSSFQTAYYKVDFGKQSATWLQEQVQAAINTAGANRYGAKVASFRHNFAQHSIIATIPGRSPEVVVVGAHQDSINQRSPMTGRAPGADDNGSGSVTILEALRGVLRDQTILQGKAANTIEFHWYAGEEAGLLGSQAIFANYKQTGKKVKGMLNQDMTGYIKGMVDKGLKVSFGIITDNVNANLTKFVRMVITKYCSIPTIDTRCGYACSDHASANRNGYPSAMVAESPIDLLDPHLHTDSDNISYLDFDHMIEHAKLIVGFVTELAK
# Sequence of ruLAP2 (Q5QHG6 20-495): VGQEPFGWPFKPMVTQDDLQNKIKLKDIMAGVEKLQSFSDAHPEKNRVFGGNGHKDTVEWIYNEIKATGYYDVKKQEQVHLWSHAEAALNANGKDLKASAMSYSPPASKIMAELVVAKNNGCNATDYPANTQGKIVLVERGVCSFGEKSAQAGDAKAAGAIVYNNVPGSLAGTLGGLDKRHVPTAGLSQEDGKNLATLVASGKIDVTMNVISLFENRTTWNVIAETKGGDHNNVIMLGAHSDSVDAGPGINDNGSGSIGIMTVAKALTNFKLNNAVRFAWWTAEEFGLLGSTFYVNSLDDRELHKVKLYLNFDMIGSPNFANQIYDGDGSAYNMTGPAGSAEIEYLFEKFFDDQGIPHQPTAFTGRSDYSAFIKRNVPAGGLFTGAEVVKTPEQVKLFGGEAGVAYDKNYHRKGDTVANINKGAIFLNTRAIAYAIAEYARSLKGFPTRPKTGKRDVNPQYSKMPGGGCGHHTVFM
molecule,measurement,setting,value
Cc1ccc(S(=O)(=O)N[C@@H](Cc2ccccc2)C(=O)CCl)cc1 [TPCK],effect of inhibitor on ruLAP1 activity,ruLAP1,no clear inhibitory effects
same,ruLAP1 activity as percentage of control reaction without inhibitor,ruLAP1; [3],68%
same,effect of inhibitor on ruLAP2 activity,ruLAP2,no clear inhibitory effects
same,ruLAP2 activity as percentage of control reaction without inhibitor,ruLAP2; inhibitor 20 μM,79%
same,effect of inhibitor on fuLAP1 activity,fuLAP1,no clear inhibitory effects
same,fuLAP1 activity as percentage of control reaction without inhibitor,fuLAP1; [3],95%
same,effect of inhibitor on fuLAP2 activity,fuLAP2,no clear inhibitory effects
same,fuLAP2 activity as percentage of control reaction without inhibitor,fuLAP2; inhibitor 20 μM,87%
same,effect of inhibitor on pkLAP activity,[1]; Leu-AMC 5 mM,no clear inhibitory effects
same,pkLAP activity as percentage of control reaction without inhibitor,[1]; [3],108%
"[Cl-].[Cl-].[Zn+2] [Zn, ZnCl2]",ruLAP1 activity as percentage of control reaction without any cation,ruLAP1,43.0% and 68.9%
same,ruLAP2 activity as percentage of control reaction without any cation,ruLAP2; cation salt 0.5 mM,77.9%
same,ruLAP2 activity as percentage of control reaction without any cation,ruLAP2; cation salt 1 mM,88.9%
same,fuLAP1 activity as percentage of control reaction without any cation,fuLAP1; [4],60.7%
same,fuLAP1 activity as percentage of control reaction without any cation,fuLAP1; [5],53.2%
same,fuLAP2 activity as percentage of control reaction without any cation,fuLAP2; cation salt 0.5 mM,51.4%
same,fuLAP2 activity as percentage of control reaction without any cation,fuLAP2; cation salt 1 mM,119.5%
same,effect of divalent cation on pkLAP activity,"[1]; Leu-AMC, cations 0.5 mM and 1 mM",highly activated
same,pkLAP activity as percentage of control reaction without any cation,[1]; [4],437.6%
same,pkLAP activity as percentage of control reaction without any cation,[1]; [5],297.9%
CC(C)C[C@@H](N)[C@H](O)C(=O)N[C@H](C(=O)N[C@H](C(=O)N[C@@H](CC(=O)O)C(=O)O)C(C)C)C(C)C [amastatin],effect of inhibitor on ruLAP1 activity,ruLAP1,strongly or totally inhibited
same,effect of inhibitor on ruLAP2 activity,ruLAP2,strongly or totally inhibited
same,effect of inhibitor on fuLAP1 activity,fuLAP1,strongly or totally inhibited
same,remaining activity at 500 µM,fuLAP1; [6],17%
same,effect of inhibitor on fuLAP2 activity,fuLAP2,strongly or totally inhibited
same,fuLAP2 activity as percentage of control reaction without inhibitor,fuLAP2; inhibitor 500 μM,0%
same,effect of inhibitor on pkLAP activity,[1],strongly or totally inhibited
same,remaining activity at 500 µM,[1]; read-out: pkLAP activity as percentage of control reaction without inhibitor,0%
N=C(N)c1ccccc1 [benzamidine],effect of inhibitor on ruLAP1 activity,ruLAP1,no clear inhibitory effects
same,effect of inhibitor on ruLAP2 activity,ruLAP2,no clear inhibitory effects
same,effect of inhibitor on fuLAP1 activity,fuLAP1,no clear inhibitory effects
same,remaining activity at 40 µM,"fuLAP1; inhibitor 40 μM, Leu-MCA substrate, 15 min pre-incubation, read-out: fuLAP1 activity as percentage of control reaction without inhibitor",77%
same,effect of inhibitor on fuLAP2 activity,fuLAP2,no clear inhibitory effects
same,fuLAP2 activity as percentage of control reaction without inhibitor,fuLAP2; inhibitor 40 μM,91%
same,effect of inhibitor on pkLAP activity,[1]; Leu-AMC 5 mM,no clear inhibitory effects
same,remaining activity at 40 µM,"[1]; inhibitor 40 μM, Leu-MCA substrate, 15 min pre-incubation, read-out: pkLAP activity as percentage of control reaction without inhibitor",75%
CC(C)C[C@H](NC(=O)[C@@H](O)[C@H](N)Cc1ccccc1)C(=O)O [bestatin],effect of inhibitor on ruLAP1 activity,ruLAP1,inhibited
same,effect of inhibitor on ruLAP2 activity,ruLAP2,partial inhibitory effect
same,effect of inhibitor on fuLAP1 activity,fuLAP1,inhibited
same,remaining activity at 500 µM,fuLAP1; [6],11%
same,effect of inhibitor on fuLAP2 activity,fuLAP2,partial inhibitory effect
same,fuLAP2 activity as percentage of control reaction without inhibitor,fuLAP2; inhibitor 500 μM,88%
same,effect of inhibitor on pkLAP activity,[1]; Leu-AMC 5 mM,inhibited
same,remaining activity at 500 µM,"[1]; inhibitor 500 μM, Leu-MCA substrate, 15 min pre-incubation, read-out: pkLAP activity as percentage of control reaction without inhibitor",24%
c1cnc2c(c1)ccc1cccnc12 [orthophenanthroline],ruLAP1 activity as percentage of control reaction without inhibitor,ruLAP1; [7],0%
same,ruLAP1 activity as percentage of control reaction without inhibitor,ruLAP1; [8],0%
same,ruLAP2 activity as percentage of control reaction without inhibitor,ruLAP2; inhibitor 1 mM,0%
same,ruLAP2 activity as percentage of control reaction without inhibitor,ruLAP2; inhibitor 5 mM,0%
same,fuLAP1 activity as percentage of control reaction without inhibitor,fuLAP1; [7],0%
same,fuLAP1 activity as percentage of control reaction without inhibitor,fuLAP1; [8],0%
same,fuLAP2 activity as percentage of control reaction without inhibitor,fuLAP2; inhibitor 1 mM,0%
same,fuLAP2 activity as percentage of control reaction without inhibitor,fuLAP2; inhibitor 5 mM,0%
same,pkLAP activity as percentage of control reaction without inhibitor,[1]; [7],0%
same,pkLAP activity as percentage of control reaction without inhibitor,[1]; [8],0%
"O=C(O)c1cc[c]([Hg][Cl])cc1 [p-chloromercuribenzoate, p-chloromercuribenzoic acid]",ruLAP1 activity as percentage of control reaction without inhibitor,ruLAP1; 500 µM,32%
same,effect of inhibitor on ruLAP2 activity,ruLAP2,blunted the activity
same,ruLAP2 activity as percentage of control reaction without inhibitor,ruLAP2; inhibitor 500 μM,21%
same,fuLAP1 activity as percentage of control reaction without inhibitor,fuLAP1; [9],90%
same,fuLAP2 activity as percentage of control reaction without inhibitor,fuLAP2; inhibitor 500 μM,96%
same,pkLAP activity as percentage of control reaction without inhibitor,[1]; [9],59%
Chymotrypsin,"digestion of the peptide, with addition of ruLAP2",[2],not able to breakdown
same,"digestion of gliadin 33mer, enzyme alone",[2],not able to breakdown
same,"digestion of the peptide, with addition of DPPIV","[2]; same conditions, E/S (w:w) 1:50",not able to breakdown
B1,"digestion of gliadin 33mer, enzyme alone",[2],totally inactive
